Data: patent US6838456B2, “Condensed pyridoindole derivatives” (Lilly ICOS LLC, priority 2000, dated 2005)

Molecular target: human recombinant PDE5 (Homo sapiens, UniProt O76074)
Test: Inhibitory effect on cGMP-PDE (one-step assay, 8-[H3]-cGMP)
Type: biochemical
Details: in vitro
Protocol: The compounds of structural formula (I) were tested for an ability to inhibit PDE5. The ability of a compound to inhibit PDE5 activity is related to the IC50 value for the compound, i.e., the concentration of inhibitor required for 50% inhibition of enzyme activity. The IC50 value for compounds of structural formula (I) were determined using recombinant human PDE5.
cGMP-PDE activity of compounds of the present invention was measured using a one-step assay adapted from Wells et al., Biochim. Biophys. Acta, 384, 430 (1975). The reaction medium contained 50 mM Tris-HCl, pH 7.5, 5 mM magnesium acetate, 250 μg/ml 5′-Nucleotidase, 1 mM EGTA, and 0.15 μM 8-[H^3]-cGMP. Unless otherwise indicated, the enzyme used was a human recombinant PDE5 (ICOS Corp., Bothell, Wash.).
Compounds of the invention were dissolved in DMSO finally present at 2% in the assay.

SMILES	IC50
O=C(O)C1CCN(C(=O)c2ccn3c2Cc2c([nH]c4ccccc24)C3c2ccc3c(c2)OCO3)CC1 (stereo not drawn) [Example 22]	3 nM
CCOC(=O)c1c(C(=O)OCC)c2n(c1C)[C@H](c1ccc3c(c1)OCO3)c1[nH]c3ccccc3c1C2 [Example 1, (R)-5-Benzo[1,3]dioxol-5-yl-3-methyl-6,11-dihydro-5H-indolizino[6,7-b]indole-1,2-dicarboxylic acid diethyl ester]	5.6 nM
O=C(NCCN1CCOCC1)c1ccn2c1Cc1c([nH]c3ccccc13)C2c1ccc2c(c1)OCO2 (stereo not drawn) [Example 31]	20 nM
CCOC(=O)c1cc(C=O)n2c1Cc1c([nH]c3ccccc13)C2c1ccc2c(c1)OCO2 (stereo not drawn) [Example 23]	3.9 nM
c1ccc2c3c([nH]c2c1)C(c1ccc2c(c1)OCO2)n1cccc1C3 (stereo not drawn) [Example 10]	140 nM
O=C(NCc1cccnc1)c1ccn2c1Cc1c([nH]c3ccccc13)C2c1ccc2c(c1)OCO2 (stereo not drawn) [Example 25]	5.9 nM
CCOC(=O)c1cc(CNCc2ccccc2)n2c1Cc1c([nH]c3ccccc13)C2c1ccc2c(c1)OCO2 (stereo not drawn) [Example 6]	10 nM
CCOC(=O)c1cc(C(C)C)n2c1Cc1c([nH]c3ccccc13)C2c1ccc2c(c1)OCO2 (stereo not drawn) [Example 19]	460 nM
CCOC(=O)c1c(C(=O)OCC)c(C(C)C)n2c1Cc1c([nH]c3ccccc13)C2c1ccc2c(c1)OCO2 (stereo not drawn) [Example 15]	190 nM
CCOC(=O)c1cc(CN)n2c1Cc1c([nH]c3ccccc13)C2c1ccc2c(c1)CCO2 (stereo not drawn) [Example 8]	40 nM
O=C(O)c1ccn2c1Cc1c([nH]c3ccccc13)C2c1ccc2c(c1)OCO2 (stereo not drawn) [Example 36]	10 nM
O=C(NCC1CCCO1)c1ccn2c1Cc1c([nH]c3ccccc13)C2c1ccc2c(c1)OCO2 (stereo not drawn) [Example 14]	5.8 nM
N#Cc1ccn2c1Cc1c([nH]c3ccccc13)C2c1ccc2c(c1)OCO2 (stereo not drawn) [Example 27]	3.6 nM
O=C(NCc1cccc[n+]1[O-])c1ccn2c1Cc1c([nH]c3ccccc13)C2c1ccc2c(c1)OCO2 (stereo not drawn) [Example 20]	1.5 nM
CCOC(=O)c1c(C(=O)OCC)c2n(c1CC)C(c1ccc3c(c1)OCO3)c1[nH]c3ccccc3c1C2 (stereo not drawn) [Example 12]	10 nM
CN1CCC(N(C)C(=O)c2ccn3c2Cc2c([nH]c4ccccc24)C3c2ccc3c(c2)OCO3)CC1 (stereo not drawn) [Example 16]	330 nM
O=C(NCCc1ccccn1)c1ccn2c1Cc1c([nH]c3ccccc13)C2c1ccc2c(c1)OCO2 (stereo not drawn) [Example 24]	2.1 nM
CCOC(=O)c1ccn2c1Cc1c([nH]c3ccccc13)C2c1ccc2c(c1)OCO2 (stereo not drawn) [Example 35]	5.5 nM
CCOC(=O)c1cc(CO)n2c1Cc1c([nH]c3ccccc13)C2c1ccc2c(c1)OCO2 (stereo not drawn) [Example 18]	10 nM
CCc1cc(C(=O)NCc2ccccn2)c2n1C(c1ccc3c(c1)OCO3)c1[nH]c3ccccc3c1C2 (stereo not drawn) [Example 53]	50 nM
CN(C(=O)O)C(=O)c1ccn2c1Cc1c([nH]c3ccccc13)C2c1ccc2c(c1)OCO2 (stereo not drawn) [Example 29]	3.8 nM
CN(C)CCNC(=O)c1ccn2c1Cc1c([nH]c3ccccc13)C2c1ccc2c(c1)OCO2 (stereo not drawn) [Example 26]	110 nM
CCOC(=O)c1cn2c(c1C(=O)OCC)Cc1c([nH]c3ccccc13)C2c1ccc2c(c1)OCO2 (stereo not drawn) [Example 21]	1.2 nM
O=C(NCc1ccccn1)c1ccn2c1Cc1c([nH]c3ccccc13)C2c1ccc2c(c1)OCO2 (stereo not drawn) [Example 28]	3.7 nM
O=C(NCCn1cccn1)c1ccn2c1Cc1c([nH]c3ccccc13)C2c1ccc2c(c1)OCO2 (stereo not drawn) [Example 17]	8 nM
NCCNC(=O)c1ccn2c1Cc1c([nH]c3ccccc13)C2c1ccc2c(c1)OCO2 (stereo not drawn) [Example 30]	10 nM
CCOC(=O)c1c(C(=O)O)c(CC)n2c1Cc1c([nH]c3ccccc13)C2c1ccc2c(c1)OCO2 (stereo not drawn) [Example 13]	5.9 nM
